Assay results from ChEMBL document CHEMBL3882724 (2013).

biological target: T1, CYP21 (steroid 21-hydroxylase) (Homo sapiens, UniProt P08686); assay: Inhibition of human CYP21 transfected in HEK293 cells assessed as decrease in conversion of progesterone to 11-deoxycorticosterone preincubated for 5 hrs followed by progesterone addition measured after 20 hrs by ELISA; assay type: cell-based; set-up: concentration or dose not given beside the values; conditions: HEK293 cells transfected with human CYP21, probe progesterone
T1 sequence (P08686 whole entry): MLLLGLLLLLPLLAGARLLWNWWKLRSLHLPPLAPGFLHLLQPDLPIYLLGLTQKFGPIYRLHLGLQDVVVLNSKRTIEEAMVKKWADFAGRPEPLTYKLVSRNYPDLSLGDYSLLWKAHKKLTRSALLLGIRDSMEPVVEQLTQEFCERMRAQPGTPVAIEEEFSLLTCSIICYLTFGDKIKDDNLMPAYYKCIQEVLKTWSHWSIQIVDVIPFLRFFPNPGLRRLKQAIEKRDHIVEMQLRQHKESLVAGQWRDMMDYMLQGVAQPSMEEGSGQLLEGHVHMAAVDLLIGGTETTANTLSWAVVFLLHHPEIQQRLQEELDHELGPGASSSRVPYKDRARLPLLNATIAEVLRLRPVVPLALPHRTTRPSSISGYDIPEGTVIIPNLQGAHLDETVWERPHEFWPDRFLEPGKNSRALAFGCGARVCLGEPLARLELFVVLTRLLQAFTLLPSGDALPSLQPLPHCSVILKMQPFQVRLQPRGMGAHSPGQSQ

inhibition at 20 h | Structure (SMILES)
10 to 50% | CO[C@H]1CC[C@@]2(C)[C@@H](CC[C@@H]3[C@@H]2CC[C@]2(C)C(c4cnccc4C)=CC[C@@H]32)C1
10 to 50% | CC1C[C@H]2C3=CC=C(c4ccc(F)nc4)[C@@]3(C)CC[C@@H]2[C@@]2(C)CCNC(=O)C=C12 (stereo not given in full)
10 to 50% | CCc1cncc(C2=CC[C@H]3[C@@H]4CC[C@H]5C[C@@H](OC)CC[C@]5(C)[C@H]4CC[C@]23C)c1
10 to 50% | C[C@]12CC(O)CC1CC[C@@H]1[C@@H]2CC[C@]2(C)C(c3cncc(Cl)c3)=CC[C@@H]12 (stereo not given in full)
10 to 50% | CC(C)(C)NC(=O)O[C@H]1CC[C@@]2(C)C(=CC[C@H]3C4=CC=C(c5cccnc5)[C@@]4(C)CC[C@@H]32)C1
10 to 50% | CC(C)C(=O)O[C@H]1CC[C@@]2(C)C(=CC[C@H]3C4=CC=C(c5cccnc5)[C@@]4(C)CC[C@@H]32)C1
10 to 50% | CC(=O)N(C)[C@H]1CC[C@@]2(C)C(CC[C@@H]3[C@@H]2CC[C@]2(C)C(c4cncc(C)c4)=CC[C@@H]32)C1 (stereo not given in full)
< 10% | COC1CC[C@@]2(C)C(=CC[C@@H]3[C@@H]2CC[C@]2(C)C(c4cccnc4)=CC[C@@H]32)C1 (stereo not given in full)
10 to 50% | CC1(O)C=C2CC[C@@H]3[C@H](CC[C@]4(C)C(c5cccnc5)=CC[C@@H]34)[C@@]2(C)CC1 (stereo not given in full)
< 10% | C[C@]12CC[C@H](O)CC1=CC[C@@H]1[C@@H]2CC[C@]2(C)C(c3cncc(NS(=O)(=O)C(F)(F)F)c3)=CC[C@@H]12
< 10% | CC1(C)C2=CC[C@@H]3[C@H](CC[C@]4(C)C(c5cccnc5)=CC[C@@H]34)[C@@]2(C)CCC1O (stereo not given in full)
< 10% | CC1C[C@H]2C3=CC=C(c4cncc(C(F)F)c4)[C@@]3(C)CC[C@@H]2[C@@]2(C)CCNC(=O)C=C12 (stereo not given in full)
10 to 50% | Cc1ccccc1C(=O)O[C@H]1CC[C@@]2(C)C(=CC[C@H]3C4=CC=C(c5cccnc5)[C@@]4(C)CC[C@@H]32)C1
10 to 50% | CCOc1cncc(C2=CC[C@H]3[C@@H]4CC[C@H]5C[C@@H](OC)CC[C@]5(C)[C@H]4CC[C@]23C)c1
10 to 50% | C[C@]12CCC3(CO3)CC1CCC1C2CC[C@]2(C)C(c3cccnc3)=CCC12 (stereo not given in full)
10 to 50% | C[C@]12CC[C@@](O)(C3CC3)CC1CC[C@@H]1[C@@H]2CC[C@]2(C)C(c3cccnc3)=CC[C@@H]12 (stereo not given in full)
< 10% | CCNC(=O)NC1CC[C@@]2(C)C(CC[C@@H]3[C@@H]2CC[C@]2(C)C(c4cccnc4)=CC[C@@H]32)C1C (stereo not given in full)
< 10% | CC(=O)NC1CC[C@@]2(C)C(CC[C@@H]3[C@@H]2CC[C@]2(C)C(c4cccnc4)=CC[C@@H]32)C1C (stereo not given in full)
10 to 50% | Cc1cncc(C2=CC=C3[C@@H]4CCC5CNC(=O)CC[C@]5(C)[C@H]4CC[C@]23C)c1 (stereo not given in full)
≥ 50% | C[C@]12CCNC(=O)CC1CCC1C2CC[C@]2(C)C(c3cncc(C(F)F)c3)=CCC12 (stereo not given in full)
10 to 50% | CCNC(=O)NC1CC[C@@]2(C)C(=CC[C@@H]3[C@@H]2CC[C@]2(C)C(c4cncc(OC)c4)=CC[C@@H]32)C1 (stereo not given in full)
< 10% | CC1(C)C(=O)CC[C@@]2(C)C1=CC[C@@H]1[C@@H]2CC[C@]2(C)C(c3cccnc3)=CC[C@@H]12

inhibition at 20 h | Structure (SMILES)
10 to 50% | CC1C[C@@H]2[C@H](CC[C@]3(C)C(c4cccnc4)=CC[C@@H]23)[C@@]2(C)CC[C@](C)(O)CC12 (stereo not given in full)
10 to 50% | CO[C@H]1CC[C@@]2(C)C(=CC[C@@H]3[C@@H]2CC[C@]2(C)C(n4ccnc4)=CC[C@@H]32)C1
< 10% | CC1C(O)CC[C@@]2(C)C1CC[C@@H]1[C@@H]2CC[C@]2(C)C(c3cncc(C(F)F)c3)=CC[C@@H]12 (stereo not given in full)
< 10% | CC(CO)(CO)C(=O)O[C@H]1CC[C@@]2(C)C(=CC[C@H]3C4=CC=C(c5cccnc5)[C@@]4(C)CC[C@@H]32)C1
10 to 50% | Cc1cnc(F)c(C2=CC[C@H]3[C@@H]4CC=C5C[C@@H](O)CC[C@]5(C)[C@H]4CC[C@]23C)c1
10 to 50% | CC(C)(C)C(=O)N[C@@H]1CC[C@@]2(C)C(CC[C@@H]3[C@@H]2CC[C@]2(C)C(c4cccnc4)=CC[C@@H]32)C1 (stereo not given in full)
10 to 50% | CCc1ccncc1C1=CC=C2[C@@H]3CCC4CC(=O)NCC[C@]4(C)[C@H]3CC[C@]12C (stereo not given in full)
10 to 50% | CC(=O)O[C@H]1CC[C@@]2(C)C(CC[C@H]3C4=CC=C(c5cnccc5C)[C@@]4(C)CC[C@@H]32)C1 (stereo not given in full)
10 to 50% | CC(=O)N(C)[C@H]1CC[C@@]2(C)C(CC[C@@H]3[C@@H]2CC[C@]2(C)C(c4cccnc4)=CC[C@@H]32)C1 (stereo not given in full)
< 10% | C[C@]12CC[C@H](O)CC1CC[C@@H]1[C@@H]2CC[C@]2(C)C(c3cccnc3)CC[C@@H]12 (stereo not given in full)
< 10% | CCc1ccncc1C1=CC=C2[C@@H]3CCC4C[C@@H](O)CC[C@]4(C)[C@H]3CC[C@]12C (stereo not given in full)
10 to 50% | Cc1ccncc1C1=CC=C2[C@@H]3CC[C@H]4CNC(=O)CC[C@]4(C)[C@H]3CC[C@]12C
≥ 50% | C[C@@]1(O)CC[C@@]2(C)C(=CC[C@@H]3[C@@H]2CC[C@]2(C)C(c4cccnc4)=CC[C@@H]32)C1
10 to 50% | COC(=O)c1cncn1C1=CC[C@H]2[C@@H]3CC=C4C[C@@H](O)CC[C@]4(C)[C@H]3CC[C@]12C
≥ 50% | C[C@]12CC[C@H]3[C@@H](CC(=O)C45CC4CC[C@]35C)C1=CC=C2c1cccnc1 (stereo not given in full)
10 to 50% | Cc1ccncc1C1=CC=C2[C@@H]3CCC4CC(=O)CC[C@]4(C)[C@H]3CC[C@]12C (stereo not given in full)
10 to 50% | C[C@]12CC[C@H](O)CC1CC[C@@H]1[C@@H]2CC[C@]2(C)C(c3ccc[n+]([O-])c3)CC[C@@H]12 (stereo not given in full)
10 to 50% | C[C@]12CC[C@H]3[C@@H](CC=C4C[C@@H](OC(=O)c5ccccc5)CC[C@@]43C)C1=CC=C2c1cccnc1
10 to 50% | CC1(O)CC2CC[C@@H]3C(CC[C@]4(C)C(c5cccnc5)=CC[C@@H]34)[C@@]2(C)C1 (single isomer, unassigned)
10 to 50% | C[C@]12CC[C@@H](NS(C)(=O)=O)CC1=CC[C@H]1C3CC=C(c4cccnc4)[C@@]3(C)CC[C@@H]12 (single isomer, unassigned)
10 to 50% | C[C@]12CCC(N)CC1CC[C@@H]1[C@@H]2CC[C@]2(C)C(c3cccnc3)=CC[C@@H]12 (single isomer, unassigned)
10 to 50% | CNC1CC[C@@]2(C)C(CCC3[C@@H]2CC[C@]2(C)C(c4cncc(C)c4)=CC[C@@H]32)C1 (single isomer, unassigned)

Structure (SMILES) | inhibition at 20 h
CC[C@@]1(O)CC[C@@]2(C)C(CC[C@@H]3[C@@H]2CC[C@]2(C)C(c4cccnc4)=CC[C@@H]32)C1 (stereo not given in full) | < 10%
C[C@]12CC[C@H]3[C@@H](CCC4=CC(=O)CC[C@@]43C)C1=CC=C2c1ccc(F)nc1 | 10 to 50%
C[C@]12CCC(=O)C=C1C(C1CC1)C[C@@H]1[C@@H]2CC[C@]2(C)C(c3cncc(F)c3)=CC[C@@H]12 (stereo not given in full) | 10 to 50%
CC1C(=O)CC[C@@]2(C)C1CC[C@@H]1[C@@H]2CC[C@]2(C)C(c3cccnc3)=CC[C@@H]12 (stereo not given in full) | 10 to 50%
CC1C[C@@H]2[C@H](CC[C@]3(C)C(c4cncc(C(F)F)c4)=CC[C@@H]23)[C@@]2(C)CCC(=O)C=C12 (stereo not given in full) | 10 to 50%
C[C@]12CC/C(=N\O)C=C1C(F)C[C@@H]1[C@@H]2CC[C@]2(C)C(c3cccnc3)=CC[C@@H]12 (stereo not given in full) | 10 to 50%
CC1C[C@H]2C3=CC=C(c4ccc(F)nc4)[C@@]3(C)CC[C@@H]2[C@@]2(C)CCC(=O)C=C12 (stereo not given in full) | 10 to 50%
C[C@]12CCC(=O)C=C1C(n1ccnn1)C[C@@H]1[C@@H]2CC[C@]2(C)C(c3cccnc3)=CC[C@@H]12 (stereo not given in full) | 10 to 50%
C[C@]12CCC(=O)C=C1C(c1ccccc1)C[C@@H]1[C@@H]2CC[C@]2(C)C(c3cccnc3)=CC[C@@H]12 (stereo not given in full) | < 10%
C[C@@]1(O)CC[C@@]2(C)C(CCC3C4=CC=C(c5cccnc5)[C@@]4(C)CC[C@@H]32)C1 (single isomer, unassigned) | < 10%
C#CC1(O)CC[C@@]2(C)C(CC[C@@H]3[C@@H]2CC[C@]2(C)C(c4cccnc4)=CC[C@@H]32)C1 (single isomer, unassigned) | 10 to 50%
